Columns and labels:
THP-1 = experiment: Cytotoxicity against human THP-1 cells assessed as cell viability at 100 uM incubated for 48 hrs by CellTiter Glo luminescent cell viability assay relative to control; details: THP-1, 48 h, read-out: Activity
[1] = target: Stimulator of interferon genes protein (Homo sapiens, UniProt Q86WV6)
Chain of Stimulator of interferon genes protein (Q86WV6 whole entry): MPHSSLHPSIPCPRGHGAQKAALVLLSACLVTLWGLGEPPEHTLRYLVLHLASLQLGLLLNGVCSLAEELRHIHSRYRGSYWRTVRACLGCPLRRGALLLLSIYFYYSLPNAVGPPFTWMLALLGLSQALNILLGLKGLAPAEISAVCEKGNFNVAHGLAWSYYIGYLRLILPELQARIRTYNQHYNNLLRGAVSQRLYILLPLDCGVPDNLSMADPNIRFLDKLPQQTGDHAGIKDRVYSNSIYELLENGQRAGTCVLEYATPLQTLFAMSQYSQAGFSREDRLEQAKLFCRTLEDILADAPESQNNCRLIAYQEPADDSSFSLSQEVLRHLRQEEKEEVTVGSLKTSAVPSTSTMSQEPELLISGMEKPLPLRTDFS

| Structure (SMILES) | IC50 [1] | viability at 100 µM (THP-1) |
| --- | --- | --- |
| COc1cc2c(=O)c3cc(Cl)cc(CC(=O)O)c3[nH]c2c(C)c1C | – | 82% |
| COc1cc2c(=O)c3c(F)ccc(CC(=O)O)c3[nH]c2c(C)c1C | – | 87.8% |
| CCOC(=O)Cn1c2ccccc2c(=O)c2cc(OC)c(C)c(C)c21 | – | 93.5% |
| COc1cc(C(=O)O)c2[nH]c3c(C)c(C)ccc3c(=O)c2c1 | > 100 µM | 91.3% |
| COc1cc(C(=O)O)c2[nH]c3c(C)c(C)c(OC)cc3c(=O)c2c1 | – | 96.5% |
| Cc1ccc2c(=O)c3c(Cl)ccc(CC(=O)O)c3[nH]c2c1C | > 100 µM | 87.7% |
| Cc1ccc2c(=O)c3cccc(CC(=O)O)c3[nH]c2c1C | > 100 µM | 93.4% |
| COc1cc2c(=O)c3c(Cl)ccc(CC(=O)O)c3[nH]c2c(C)c1C | – | 95.4% |
| Cc1ccc2c(=O)c3cc(Cl)cc(CC(=O)O)c3[nH]c2c1C | > 100 µM | 83.4% |
| COc1cc2c(=O)c3cccc(C(=O)O)c3[nH]c2c(C)c1C | – | 92.1% |
| COc1cc2c(=O)c3cc(F)cc(CC(=O)O)c3[nH]c2c(C)c1C | – | 106% |
| Cc1ccc2c(=O)c3c(F)ccc(CC(=O)O)c3[nH]c2c1C | > 100 µM | 103% |

More lines, main results first:

| IC50 [1] | Structure (SMILES) | viability at 100 µM (THP-1) |
| --- | --- | --- |
| 5.95 µM | COc1cc2c(=O)c3cc(C)cc(C(=O)O)c3[nH]c2c(C)c1C | 98.4% |
| > 100 µM | Cc1ccc2c(=O)c3cc(F)cc(CC(=O)O)c3[nH]c2c1C | 99% |
| 41.5 µM | COC(=O)Cn1c2ccc(C)cc2c(=O)c2cc(OC)c(C)c(C)c21 | 85.7% |
| > 100 µM | CCOC(=O)Cn1c2ccc(OC)cc2c(=O)c2ccc(C)c(C)c21 | 99.2% |
| > 100 µM | COc1ccc2c(c1)c(=O)c1ccc(C)c(C)c1n2CC(=O)O | 95.8% |
| 13.7 µM | COc1ccc2[nH]c3c(C)c(C)ccc3c(=O)c2c1 | 98.8% |
| 33.8 µM | COc1ccc2c(c1)c(=O)c1cc(OC)c(C)c(C)c1n2CC(=O)OCC(C)(C)C | 93.3% |
| 8.26 µM | COc1cc2c(=O)c3ccccc3n(CC(=O)O)c2c(C)c1C | 86.9% |
| 11.1 µM | COc1ccc2c(c1)c(=O)c1cc(OC)c(C)c(C)c1n2CC(=O)O | 83.3% |
| 28 µM | COc1cc2c(=O)c3cccc(CC(=O)O)c3[nH]c2c(C)c1C | 91.4% |
| 25.1 µM | COc1cc2c(=O)c3cc(C)ccc3n(CC(=O)O)c2c(C)c1C | 105% |
| 26 µM | CCOC(=O)Cn1c2ccc(OC)cc2c(=O)c2cc(OC)c(C)c(C)c21 | 102% |
| 11.4 µM | COc1cc(CC(=O)O)c2[nH]c3c(C)c(C)c(OC)cc3c(=O)c2c1 | 86.7% |

Source: ChEMBL document CHEMBL6134906, “Design, Synthesis, and Biological Evaluation of Selective STING Synergists That Enhance cGAMP-STING Pathway Activation without Inherent Agonist Activity” (J Med Chem, 2025)
